Measured values reported in patent US7371225B2, “Method for convection enhanced delivery of therapeutic agents” (The United States of America as represented by the …, priority 2002, dated 2008).
Like-named read-outs stand apart in the source and are kept apart here.

Assays:
cerebral white matter [1] = test: CED of iopamidol in cerebral white matter with real-time CT-imaging; assay type: in vivo, primates (Macaca mulatta)
Protocol: (§1) Four primates (Macaca mulatta) underwent CED of various volumes (total volume of 90 to 150 μl) of iopamidol (777 Da) in the cerebral white matter combined with CT-imaging during and after infusion (up to 5 days post-infusion), as well as quantitative autoradiography (QAR). Clinical observation (≦20 weeks) and histopathology were used to evaluate safety and toxicity.

cerebral white matter [2] = settings: in vivo
Protocol: as §1

[3] = system: sympathetic ganglia explants; settings: cited from earlier work
[4] = in vivo; cited from earlier work
putamen = system: putamen; parameters: species or system rhesus monkeys; settings: rhesus monkey, in vivo
Protocol: Anesthesia was induced with ketamine (10 mg/kg), xylazine (0.5 mg/kg), and thiopental sodium (1 mg/kg). The animals were secured in a monkey stereotactic frame (Kopf Instruments, Tujunga, Calif.). A Hamilton 32-gauge metal blunt tip needle connected to a 250 μl Hamilton syringe (Thompson Instruments, Chantilly, Va.) was stereotactically inserted in the center of the right putamen (anteroposterior 15.5 mm, mediolateral 12 mm and dorsoventral 24.5 mm relative to the tympanic canals and the mid-sagittal sinus)^15. After a delay of 90 minutes, the infusion was begun at 1.0 μl/min.
For CT, 130 μl, 200 μl and 235 μl of the tracer IPA-BSA/^14C-BSA mixture (35-55 Iopanoic Acid/BSA, 61.3-80.4 mg/ml ^14C-BSA) was infused. […]
CT and MRI images were analyzed in the MEDx software package (Sensor Systems, Inc., Sterling, Va.) running on a Sun workstation (Sun Microsystems, Inc., Palo Alto, Calif.). […] These were measured by volume segmentation using two different thresholds. Vd(1) was calculated as the volumes of distribution from CT and MRI containing at least 10% of the total increase in signal intensity due to the addition of contrast agent. A rectangular region of interest (ROI) over the infusion area was defined and in the corresponding site in the contralateral hemisphere, and the perfused maximal signal intensity (peak) and the unperfused maximal signal intensity (background) was measured. […]

C[C@H](O)C(=O)Nc1c(I)c(C(=O)NC(CO)CO)c(I)c(C(=O)NC(CO)CO)c1I [iopamidol]
Distribution of infusate identifiable post-infusion up to (cerebral white matter [1]; CT-imaging): up to 72 hours
Homogeneity of distribution of infusate (cerebral white matter [1]; CT-imaging): homogeneous
Overall Vd:Vi ratio, mean±S.D. (cerebral white matter [1]; real-time CT-imaging, total volume 90 to 150 μl): 4.1±0.7
Clinical or histopathologic evidence of toxicity (cerebral white matter [2]): None of the animals had clinical or histopathologic evidence of toxicity

CCC(Cc1c(I)cc(I)c(N)c1I)C(=O)O (centres unmarked) [iopanoic acid]
Toxicity in tissue culture ([3]; 0.01 mM): No toxicity
Neurotoxicity in the clinical setting [4]: not to be neurotoxic
Side effects when used for imaging the gallbladder [4]: rare side effects (acute renal insufficiency, acute thrombocytompenia)

CCC(Cc1c(I)cc(I)c(N)c1I)C(=O)[O-].[Na+] (centres unmarked) [sodium iopanoate]
Toxicity in tissue culture ([3]; 0.1 mM): vacuolization of fibroblasts
Toxicity in tissue culture ([3]; 1 mM): immediate death of sympathetic ganglia explants

IPA-BSA: Iopanoic acid conjugated to BSA, surrogate tracer for CT
Mean Vd(1) (putamen): 3.44±0.74
Mean Vd(2) (putamen): 4.51±1.31
